Measurements as given in patent publication US20240254119A1 (THIRD HARMONIC BIO, INC., priority 2022, published 2024).

Key:
Kinetic solubility assay = assay type: physicochemical; settings: kinetic solubility, 50 mM PB (pH 7.4), shaken 24 hours at RT
Outline: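 Test compounds from 10 mM DMSO stock were diluted in 50 mM phosphate buffer, pH 7.4, and shaken for 24 h at RT. After PTFE filtration and centrifugation, filtrate concentration was quantified by UPLC-UV/HPLC-UV against a standard curve.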

wtKIT [1] = biological target: T1, wtKIT (Homo sapiens, UniProt P10721); assay: Caliper biochemical assay, wtKIT; settings: Table 6, read-out: KIT Biochemical IC50 avg
T1 construct: 1888289AM in the reaction mixtures
T1 sequence (P10721 26-976): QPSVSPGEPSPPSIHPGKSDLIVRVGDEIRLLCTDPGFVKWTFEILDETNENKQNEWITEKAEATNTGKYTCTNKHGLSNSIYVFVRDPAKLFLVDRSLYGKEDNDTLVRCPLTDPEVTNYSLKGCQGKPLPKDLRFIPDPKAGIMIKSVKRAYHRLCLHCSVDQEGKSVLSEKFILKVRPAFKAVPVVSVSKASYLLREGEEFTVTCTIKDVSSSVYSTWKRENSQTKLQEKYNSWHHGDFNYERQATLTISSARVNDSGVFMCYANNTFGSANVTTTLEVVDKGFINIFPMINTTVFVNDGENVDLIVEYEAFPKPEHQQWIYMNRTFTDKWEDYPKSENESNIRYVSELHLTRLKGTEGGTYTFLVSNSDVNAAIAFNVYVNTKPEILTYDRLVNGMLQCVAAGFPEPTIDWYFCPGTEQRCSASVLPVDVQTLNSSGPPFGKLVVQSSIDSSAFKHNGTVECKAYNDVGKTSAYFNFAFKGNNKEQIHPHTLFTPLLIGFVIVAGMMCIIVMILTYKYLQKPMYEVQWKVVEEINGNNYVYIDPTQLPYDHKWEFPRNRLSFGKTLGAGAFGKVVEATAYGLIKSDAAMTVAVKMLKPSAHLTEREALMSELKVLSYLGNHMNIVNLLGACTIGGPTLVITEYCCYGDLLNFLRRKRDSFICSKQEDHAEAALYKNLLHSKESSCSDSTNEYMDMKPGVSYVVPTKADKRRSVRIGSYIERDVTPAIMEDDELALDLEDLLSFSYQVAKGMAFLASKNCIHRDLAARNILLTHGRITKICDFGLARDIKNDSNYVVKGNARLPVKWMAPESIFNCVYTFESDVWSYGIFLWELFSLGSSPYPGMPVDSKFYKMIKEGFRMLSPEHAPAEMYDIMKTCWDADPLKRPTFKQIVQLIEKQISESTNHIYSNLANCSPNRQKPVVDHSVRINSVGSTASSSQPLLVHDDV
Outline: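 Enzyme (5.0 nM wtKIT), 1 μM FAM-labelled peptide, 400 μM ATP and 10 mM MnCl2 in HEPES pH 7.5 with 1% DMSO, incubated 3 h at 25° C. EDTA quench; substrate and phosphoproduct separated by microfluidic electrophoresis and quantified by fluorescence.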

PDGFRα = biological target: T2, PDGFRα (Homo sapiens, UniProt P16234); assay: Caliper biochemical assay, PDGFRα; settings: Table 6
T2 construct: purchased Millipore 14-467 (lot 26321_ACTI)
T2 sequence (P16234 24-1089): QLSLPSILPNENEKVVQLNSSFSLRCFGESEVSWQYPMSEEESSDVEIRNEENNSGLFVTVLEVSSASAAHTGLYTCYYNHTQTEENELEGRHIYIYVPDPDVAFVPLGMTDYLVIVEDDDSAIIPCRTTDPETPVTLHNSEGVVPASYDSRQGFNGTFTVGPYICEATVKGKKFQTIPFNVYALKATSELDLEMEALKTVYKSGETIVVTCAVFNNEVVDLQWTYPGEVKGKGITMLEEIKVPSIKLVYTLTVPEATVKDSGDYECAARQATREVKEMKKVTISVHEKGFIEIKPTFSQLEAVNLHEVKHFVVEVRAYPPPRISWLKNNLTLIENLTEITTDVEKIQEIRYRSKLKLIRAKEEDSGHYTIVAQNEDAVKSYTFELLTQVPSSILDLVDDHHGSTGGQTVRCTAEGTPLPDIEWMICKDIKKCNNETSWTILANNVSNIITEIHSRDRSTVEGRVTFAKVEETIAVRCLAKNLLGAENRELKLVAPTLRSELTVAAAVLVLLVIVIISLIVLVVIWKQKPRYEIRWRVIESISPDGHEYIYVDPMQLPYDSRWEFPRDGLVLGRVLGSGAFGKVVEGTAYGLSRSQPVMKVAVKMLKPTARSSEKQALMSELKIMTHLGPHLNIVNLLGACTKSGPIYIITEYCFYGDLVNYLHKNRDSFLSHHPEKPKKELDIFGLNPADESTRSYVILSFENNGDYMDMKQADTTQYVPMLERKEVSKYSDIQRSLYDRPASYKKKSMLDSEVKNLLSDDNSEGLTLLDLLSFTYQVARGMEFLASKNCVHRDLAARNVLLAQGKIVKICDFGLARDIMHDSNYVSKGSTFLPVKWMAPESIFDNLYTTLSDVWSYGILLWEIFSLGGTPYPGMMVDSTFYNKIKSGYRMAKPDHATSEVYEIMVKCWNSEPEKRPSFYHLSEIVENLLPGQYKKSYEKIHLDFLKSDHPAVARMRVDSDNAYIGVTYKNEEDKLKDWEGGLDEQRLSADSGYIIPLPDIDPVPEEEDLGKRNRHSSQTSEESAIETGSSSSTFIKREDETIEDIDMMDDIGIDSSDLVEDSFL
Procedure: (§1) Enzyme, substrate, and cofactors (ATP and Mn^2+) are combined in a well of a microtiter plate and incubated for 3 hours at 25° C. At the end of the incubation, the reaction is quenched by the addition of an EDTA-containing buffer. Substrate and product are separated electrophoretically using the microfluidic-based LabChip 3000 Drug Discovery System from Caliper Life Sciences* and quantitated by fluorescence intensity.
(§2) The substrate used in the CSF-1R and PDGFRα assay is FAM-[…]-CONH2 (FAM is carboxyfluorescein). Peptide should be >95% purity. The substrate for the KIT assay is FAM-[…]-NH2.
(§3) • 1. To a well of a 384-well plate add 5 μL of 2× enzyme buffer (or control) • 2. Add 100 nL of 100× compound. • 3. Add 5 μL of 2× substrate buffer. • 4. Incubate plate at 25° C. for 3 hours. • 5. Add 10 uL of […]. • 6. Read plate LabChip 3000 Drug Discovery System
(§4) • 3 hours at 25° C. where 100% Inhibitor: No enzyme.

[2] = biological target: T3, BCRP (BCRP-MDCKII monolayer) (Homo sapiens, UniProt Q9UNQ0); assay: MDCKII-BCRP bidirectional transport assay; assay type: in vitro ADME; settings: for MDCK-BCRP: Papp A-B: apical to basolateral
T3 construct: host or cells: MDCKII (canine kidney) cells
T3 sequence (Q9UNQ0 1-655): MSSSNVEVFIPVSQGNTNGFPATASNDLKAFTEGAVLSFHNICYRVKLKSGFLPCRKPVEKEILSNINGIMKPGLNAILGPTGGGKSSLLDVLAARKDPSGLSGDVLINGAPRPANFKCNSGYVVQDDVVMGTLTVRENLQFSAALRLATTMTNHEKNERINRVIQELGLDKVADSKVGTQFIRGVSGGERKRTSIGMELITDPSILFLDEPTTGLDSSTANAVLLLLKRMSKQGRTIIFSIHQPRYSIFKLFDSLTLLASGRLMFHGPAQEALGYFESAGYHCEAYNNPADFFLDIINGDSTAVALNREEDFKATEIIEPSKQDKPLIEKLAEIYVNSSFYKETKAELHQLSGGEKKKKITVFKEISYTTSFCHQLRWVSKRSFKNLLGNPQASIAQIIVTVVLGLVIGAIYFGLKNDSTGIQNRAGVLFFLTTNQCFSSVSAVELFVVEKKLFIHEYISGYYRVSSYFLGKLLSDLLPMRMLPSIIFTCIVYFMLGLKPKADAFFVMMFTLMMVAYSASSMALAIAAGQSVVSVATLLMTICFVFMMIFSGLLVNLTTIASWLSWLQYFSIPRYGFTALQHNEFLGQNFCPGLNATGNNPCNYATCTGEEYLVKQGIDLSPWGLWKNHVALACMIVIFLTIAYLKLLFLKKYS
Outline: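 Bidirectional A→B and B→A transport across PreadyPort BCRP-MDCKII monolayers (days 12–15) was run in duplicate for 120 min at 37° C, 5% CO2 after a 15 min preincubation. Compound levels were measured by LC-MS/MS. Papp and recovery were calculated, with efflux ratio indicating transporter engagement.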

wtKIT [3] = biological target: T1, wtKIT; assay: HTRF biochemical assay, wtKIT (phosphorylation of a peptide substrate); settings: Table 4
Outline: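 wtKIT (5.0 nM) phosphorylating 1 µM FAM-labelled peptide with 400 µM ATP and 10 mM MnCl2 in 100 mM HEPES pH 7.5, 1% DMSO, 3 h at 25 °C. EDTA quench; phosphopeptide detected with anti-phosphotyrosine antibody by HTRF. Enzyme titrated for 10-20% substrate conversion.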

CSF-1R = biological target: T4, CSF-1R (Homo sapiens, UniProt P07333); assay: Caliper biochemical assay, CSF-1R; settings: Table 6
T4 construct: purchased Invitrogen PV3249 (lot 662393N)
T4 sequence (P07333 20-972): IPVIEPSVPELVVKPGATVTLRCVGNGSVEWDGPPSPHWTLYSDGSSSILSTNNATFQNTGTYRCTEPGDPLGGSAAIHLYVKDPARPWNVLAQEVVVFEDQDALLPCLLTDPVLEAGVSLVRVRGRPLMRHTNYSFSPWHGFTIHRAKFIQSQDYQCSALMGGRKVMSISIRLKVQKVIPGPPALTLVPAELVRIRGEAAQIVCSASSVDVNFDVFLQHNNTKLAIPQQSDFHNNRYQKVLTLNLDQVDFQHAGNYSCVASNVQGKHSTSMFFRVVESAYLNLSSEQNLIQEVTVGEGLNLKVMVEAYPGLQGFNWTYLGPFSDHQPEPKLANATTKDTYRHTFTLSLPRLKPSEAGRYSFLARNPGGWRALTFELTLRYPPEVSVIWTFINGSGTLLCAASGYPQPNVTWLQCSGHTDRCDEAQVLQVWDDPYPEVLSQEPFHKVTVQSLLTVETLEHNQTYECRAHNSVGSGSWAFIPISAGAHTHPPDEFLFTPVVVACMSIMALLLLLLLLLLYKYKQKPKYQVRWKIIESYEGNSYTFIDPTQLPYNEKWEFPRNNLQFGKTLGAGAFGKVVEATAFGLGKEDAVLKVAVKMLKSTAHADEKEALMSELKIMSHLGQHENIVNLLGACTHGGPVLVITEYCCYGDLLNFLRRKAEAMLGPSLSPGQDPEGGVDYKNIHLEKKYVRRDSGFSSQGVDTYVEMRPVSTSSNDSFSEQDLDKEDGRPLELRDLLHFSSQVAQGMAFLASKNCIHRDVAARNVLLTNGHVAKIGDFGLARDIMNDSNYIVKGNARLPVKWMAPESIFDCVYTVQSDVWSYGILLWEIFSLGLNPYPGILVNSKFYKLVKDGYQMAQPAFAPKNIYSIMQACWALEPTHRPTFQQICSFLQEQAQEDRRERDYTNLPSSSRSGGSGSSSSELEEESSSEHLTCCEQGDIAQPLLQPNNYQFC
Procedure: as §1, §2, §3, §4

Cc1nc(-c2ccc(C)c(NC(=O)c3cnc4ccc(N)cn34)c2)no1 [Compound I-219]
Solubility (μM) (Kinetic solubility assay): *** (a solubility greater than 2 μM and less than or equal to 10 μM)
IC50 (wtKIT [1]): ≤ 0.05 µM
IC50 (PDGFRα): 0.5 to 5 µM
MDCK-BCRP: Efflux Ratio [2]: 37
MDCK-BCRP: Papp A-B [2]: 0.79 10^−6 cm/s
IC50 (wtKIT [3]): ≤ 0.05 µM
IC50 (CSF-1R): 0.05 to 0.5 µM

COC(=O)N1CC(c2nc(-c3ccc(C)c(NC(=O)c4cnc5cc(OCCO)ccn45)c3)no2)C1 [Compound I-264]
Solubility (μM) (Kinetic solubility assay): ** (a solubility greater than 10 μM and less than or equal to 50 μM)
IC50 (wtKIT [1]): ≤ 0.05 µM
IC50 (PDGFRα): 0.05 to 0.5 µM
MDCK-BCRP: Efflux Ratio [2]: 24.2
MDCK-BCRP: Papp A-B [2]: 0.71 10^−6 cm/s
IC50 (wtKIT [3]): ≤ 0.05 µM
IC50 (CSF-1R): ≤ 0.05 µM

COC(=O)N1CC(c2nc(-c3ccc(C)c(NC(=O)c4cnn5ccc(C#N)cc45)c3)no2)C1 [Compound I-265]
Solubility (μM) (Kinetic solubility assay): ** (a solubility greater than 10 μM and less than or equal to 50 μM)
IC50 (wtKIT [1]): 0.05 to 0.5 µM
IC50 (PDGFRα): 5 to 30 µM
MDCK-BCRP: Efflux Ratio [2]: 19.4
MDCK-BCRP: Papp A-B [2]: 1 10^−6 cm/s
IC50 (wtKIT [3]): 0.05 to 0.5 µM
IC50 (CSF-1R): 5 to 30 µM

Cc1ccc(-c2noc(C3CCC(=O)N3C)n2)cc1NC(=O)c1cnc2ccccn12 (racemic) [Compound I-326]
Solubility (μM) (Kinetic solubility assay): * (a solubility greater than 50 μM)
IC50 (wtKIT [1]): 0.05 to 0.5 µM
IC50 (PDGFRα): 5 to 30 µM
MDCK-BCRP: Efflux Ratio [2]: 28.3
MDCK-BCRP: Papp A-B [2]: 1.07 10^−6 cm/s
IC50 (CSF-1R): 0.5 to 5 µM

CCOC1CC(c2nc(-c3ccc(C)c(NC(=O)c4cnc5ccccn45)c3)no2)C1 (stereo not drawn) [Compound I-309]
Solubility (μM) (Kinetic solubility assay): *** (a solubility greater than 2 μM and less than or equal to 10 μM)
IC50 (wtKIT [1]): ≤ 0.05 µM
IC50 (PDGFRα): 0.5 to 5 µM
MDCK-BCRP: Efflux Ratio [2]: 1.07
MDCK-BCRP: Papp A-B [2]: 11.3 10^−6 cm/s
IC50 (CSF-1R): 0.05 to 0.5 µM

Cc1ccc(-c2noc(C3CC(Oc4ccccc4)C3)n2)cc1NC(=O)c1cnc2ccccn12 (stereo not drawn) [Compound I-348]
Solubility (μM) (Kinetic solubility assay): *** (a solubility greater than 2 μM and less than or equal to 10 μM)
IC50 (wtKIT [1]): ≤ 0.05 µM
IC50 (PDGFRα): 0.5 to 5 µM
MDCK-BCRP: Efflux Ratio [2]: 2.37
MDCK-BCRP: Papp A-B [2]: 0.13 10^−6 cm/s
IC50 (CSF-1R): 0.05 to 0.5 µM

Cc1ccc(-c2noc([C@H]3C[C@@H]3F)n2)cc1NC(=O)c1cnc2cc(Br)ccn12 [Compound I-383]
Solubility (μM) (Kinetic solubility assay): **** (a solubility less than or equal to 2 μM)
IC50 (wtKIT [1]): ≤ 0.05 µM
IC50 (PDGFRα): 0.05 to 0.5 µM
MDCK-BCRP: Efflux Ratio [2]: 1.74
MDCK-BCRP: Papp A-B [2]: 7.55 10^−6 cm/s
IC50 (CSF-1R): ≤ 0.05 µM

Cc1ccc(-c2noc(-c3ccccn3)n2)cc1NC(=O)c1cnc2ccccn12 [Compound I-272]
Solubility (μM) (Kinetic solubility assay): **** (a solubility less than or equal to 2 μM)
IC50 (wtKIT [1]): ≤ 0.05 µM
IC50 (PDGFRα): 0.5 to 5 µM
MDCK-BCRP: Efflux Ratio [2]: 3.4
MDCK-BCRP: Papp A-B [2]: 6.58 10^−6 cm/s
IC50 (CSF-1R): 0.05 to 0.5 µM

COC1(C(F)F)CC(c2nc(-c3ccc(C)c(NC(=O)c4cnc5ccccn45)c3)no2)C1 (stereo not drawn) [Compound I-325]
Solubility (μM) (Kinetic solubility assay): **** (a solubility less than or equal to 2 μM)
IC50 (wtKIT [1]): ≤ 0.05 µM
IC50 (PDGFRα): 0.05 to 0.5 µM
MDCK-BCRP: Efflux Ratio [2]: 1.39
MDCK-BCRP: Papp A-B [2]: 11.4 10^−6 cm/s
IC50 (CSF-1R): ≤ 0.05 µM

Cc1ccc(-c2noc(C3CC(Oc4ccccc4)C3)n2)cc1NC(=O)c1cnc2ccccn12 (stereo not drawn) [Compound I-347]
Solubility (μM) (Kinetic solubility assay): **** (a solubility less than or equal to 2 μM)
IC50 (wtKIT [1]): ≤ 0.05 µM
IC50 (PDGFRα): 0.5 to 5 µM
MDCK-BCRP: Efflux Ratio [2]: 1.28
MDCK-BCRP: Papp A-B [2]: 0.17 10^−6 cm/s
IC50 (CSF-1R): 0.05 to 0.5 µM

Cc1ccc(-c2noc(C34CC(F)(C3)C4)n2)cc1NC(=O)c1cnc2ccccn12 [Compound I-392]
Solubility (μM) (Kinetic solubility assay): *** (a solubility greater than 2 μM and less than or equal to 10 μM)
IC50 (wtKIT [1]): ≤ 0.05 µM
IC50 (PDGFRα): 0.5 to 5 µM
MDCK-BCRP: Efflux Ratio [2]: 2.82
MDCK-BCRP: Papp A-B [2]: 7.51 10^−6 cm/s
IC50 (CSF-1R): ≤ 0.05 µM

COC(=O)Cc1nc(-c2ccc(C)c(NC(=O)c3cnc4ccccn34)c2)no1 [Compound I-321]
Solubility (μM) (Kinetic solubility assay): **** (a solubility less than or equal to 2 μM)
IC50 (wtKIT [1]): ≤ 0.05 µM
IC50 (PDGFRα): 0.5 to 5 µM
MDCK-BCRP: Efflux Ratio [2]: 3.4
MDCK-BCRP: Papp A-B [2]: 4.73 10^−6 cm/s
IC50 (CSF-1R): 0.05 to 0.5 µM

Cc1ccc(-c2noc([C@H]3C[C@@H]3F)n2)cc1NC(=O)c1cnc2cc(N3CCCC3)ccn12 [Compound I-365]
Solubility (μM) (Kinetic solubility assay): *** (a solubility greater than 2 μM and less than or equal to 10 μM)
IC50 (wtKIT [1]): ≤ 0.05 µM
IC50 (PDGFRα): ≤ 0.05 µM
MDCK-BCRP: Efflux Ratio [2]: 1.21
MDCK-BCRP: Papp A-B [2]: 4.73 10^−6 cm/s
IC50 (CSF-1R): ≤ 0.05 µM

Cc1ccc(-c2noc(C3(CO)CC(F)(F)C3)n2)cc1NC(=O)c1cnc2ccccn12 [Compound I-320]
Solubility (μM) (Kinetic solubility assay): *** (a solubility greater than 2 μM and less than or equal to 10 μM)
IC50 (wtKIT [1]): ≤ 0.05 µM
IC50 (PDGFRα): 0.05 to 0.5 µM
MDCK-BCRP: Efflux Ratio [2]: 16
MDCK-BCRP: Papp A-B [2]: 1.75 10^−6 cm/s
IC50 (CSF-1R): ≤ 0.05 µM

Cc1ccc(-c2noc(CC(=O)OCc3ccccc3)n2)cc1NC(=O)c1cnc2ccccn12 [Compound I-322]
Solubility (μM) (Kinetic solubility assay): **** (a solubility less than or equal to 2 μM)
IC50 (wtKIT [1]): ≤ 0.05 µM
IC50 (PDGFRα): 5 to 30 µM
MDCK-BCRP: Efflux Ratio [2]: 2.7
MDCK-BCRP: Papp A-B [2]: 1.38 10^−6 cm/s
IC50 (CSF-1R): 0.05 to 0.5 µM

Cc1ccc(-c2noc([C@H]3C[C@@H]3F)n2)cc1NC(=O)c1cnc2ccc(N3CCCC3)cn12 [Compound I-361]
Solubility (μM) (Kinetic solubility assay): **** (a solubility less than or equal to 2 μM)
IC50 (wtKIT [1]): ≤ 0.05 µM
IC50 (PDGFRα): 0.05 to 0.5 µM
MDCK-BCRP: Efflux Ratio [2]: 0.54
MDCK-BCRP: Papp A-B [2]: 1.1 10^−6 cm/s
IC50 (CSF-1R): ≤ 0.05 µM
